Data on one compound can be found in ChEMBL document CHEMBL3259703, “Synthesis and preliminary biological evaluation of 1,2,3-triazole-Jaspine B hybrids as potential cytotoxic agents” (Eur J Med Chem, 2014).

Common to all, as to format: functional
For assay [1], the system named is MCF7. As to the kind of experiment: Induction of apoptosis in human MCF7 cells assessed as late apoptotic cells at 4 uM after 16 hrs using Annexin V/PI double staining by flow cytometry (reference value: 0.7 %). Background: In flow cytometry, cells or beads pass a laser one at a time.
Assay [2] relates to MCF7. Description: Cell cycle arrest in human MCF7 cells assessed as accumulation at S phase at 2 uM after 8 hrs using propidium iodide staining by flow cytometry (reference value: 33.03 %).
The subject of assay [3] is MCF7. As to the kind of experiment: Induction of apoptosis in human MCF7 cells assessed as necrotic cells at 8 uM after 16 hrs using Annexin V/PI double staining by flow cytometry (reference value: 0.7 %).
The test system of assay [4] is MCF7. As to the kind of experiment: Induction of apoptosis in human MCF7 cells assessed as early apoptotic cells at 2 uM after 8 hrs using Annexin V/PI double staining by flow cytometry (reference value: 8.2 %).
For assay [5], the system named is MCF7. Description: Cell cycle arrest in human MCF7 cells assessed as accumulation at G2/M phase at 4 uM after 16 hrs using propidium iodide staining by flow cytometry (reference value: 20.08 %).
The test system of assay [6] is MCF7. As to the kind of experiment: Induction of apoptosis in human MCF7 cells assessed as late apoptotic cells at 2 uM after 16 hrs using Annexin V/PI double staining by flow cytometry (reference value: 0.7 %).
The test system of assay [7] is MCF7. Description: Cell cycle arrest in human MCF7 cells assessed as accumulation at G2/M phase at 8 uM after 16 hrs using propidium iodide staining by flow cytometry (reference value: 20.08 %).
The subject of assay [8] is MCF7. Description: Induction of apoptosis in human MCF7 cells assessed as necrotic cells at 2 uM after 8 hrs using Annexin V/PI double staining by flow cytometry (reference value: 0.6 %).
Assay [9] can be described thus: Ratio of IC50 Jaspine B to compound IC50 for human EC9706 cells after 48 hrs by MTT assay. (In general: Formazan colour is commonly taken as a measure of viable cells.)
Assay [10] has as its system MCF7. As to the kind of experiment: Induction of apoptosis in human MCF7 cells assessed as viable cells at 2 uM after 16 hrs using Annexin V/PI double staining by flow cytometry (reference value: 87.5 %). Particulars: MCF7, 16 h, read-out: Activity.
The test system of assay [11] is MCF7. As to the kind of experiment: Cell cycle arrest in human MCF7 cells assessed as accumulation at S phase at 4 uM after 8 hrs using propidium iodide staining by flow cytometry (reference value: 33.03 %).

Structures are written as SMILES.

For the compound `CCCCCCCCCCCCCCCCCCn1cc(COC[C@@H]2OC[C@H](N)[C@H]2O)nn1`, the Activity in the assay on MCF7 [1] is reported as 11.6%; with MCF7 [2], 29.66%; with MCF7 [3] it was 5.5%; in the assay on MCF7 [4], 12%; in the assay on MCF7 [5], 36.4%; in the assay with MCF7 [6], 5.1%. Besides, the figures for the Activity in the assay on MCF7 [7], with MCF7 [8] and in the assay with MCF7 [11] were 47.4%, 1.2% and 28.66%, respectively. Besides, the “Ratio IC50” value in [9] was 2. Further, the viability at 2 µM in the assay on MCF7 [10] was found to be 58.5%.
